From US9115153B2, “Aza metal complexes” (Canon Kabushiki Kaisha, priority 2007, dated 2015) come the findings set out here.

Data set [1] can be described thus: XAFS measurement and analysis (coordination number). The data set is classed as physicochemical. The settings on record: for comparison. The protocol: The XAFS analysis of the complex (R)-11 was performed at Spring-8.
Specifically, the number of the coordinated water molecules was estimated by removing background from XAFS spectra and performing fitting using Fourier transformation or Fourier inverse transformation.
Further, the XAFS spectra were obtained by a transmission method using an ion chamber for a pellet (in a powder state) of the complex ((R)-11) and a fluorescence method using a multi-element semiconductor detector for an aqueous solution of the complex ((R)-11), respectively.
When fitting was performed without fixing the proximal coordination number to 9, the following results were obtained. In a powder state, the coordination number of O was 6.99 and the distance between atoms of Gd and O was 2.421 Å, and in an aqueous solution (3 mM) the coordination number of O was 9.77 and the distance between atoms of Gd and O was 2.430 Å.

Data set [2] in a line: T1 relaxation time measurement by 500 MHz NMR in FBS solution. The data set is classed as physicochemical. The settings on record: FBS 80%, heavy water 10%, H2O 10%; otherwise as Example 4 / Comparative Example 1 (500 MHz NMR). The protocol: The T1 time was measured in the same manner as in Example 4 except that the NMR measurement sample was changed to an FBS (fetal bovine serum) solution of the complex (R)-11 (FBS concentration: 80%, heavy water concentration: 10%, H2O concentration: 10%).
The T1 time was measured in the same manner as in Comparative Example 1 except that the NMR measurement sample was changed to an FBS (fetal bovine serum) solution of GdCl3 or Gd (DTPA) (FBS concentration: 80%, heavy water concentration: 10%, H2O concentration: 10%).

Data set [3] in a line: T1 relaxation time measurement by 500 MHz NMR (aqueous solution). The data set is classed as physicochemical. The settings on record: 0.13 mM aqueous solution, 10% heavy water, 27° C., inversion recovery. Here is the method:
The T1 relaxation time measurement was performed using a broadband probe on a 500 MHz NMR apparatus (Avance 500 manufactured by Bruker Biospin K.K.). The T1 relaxation times were measured at 27° C. using an inversion recovery method.
First, a Gd triamine 2nd G-12-ol-dendrimer complex (R)-11 was dissolved in 1 ml of ultrapure water to prepare an aqueous solution in which the concentration of complex (R)-11 was 24.05 mM. In addition, the concentration of complex (R)-11 was determined from the Gd concentration by inductive coupled plasma emission spectrometry (ICP emission spectrometry). Next, the aqueous solution was diluted with ultrapure water and heavy water so that the concentration of complex (R)-11 was 0.13 mM and the concentration of heavy water was 10%, and the resulting aqueous solution was used as an NMR measurement sample. […] The data shown in FIG. 1 clarified that the T1 time of water of the complex (R)-11 aqueous solution was 429 ms.
The T1 relaxation time was measured in the same manner as in Example 4. […] The T1 relaxation time of water for the Gd (DTPA) aqueous solution sample determined from the data shown in FIG. 2 was 1333 ms, which is considerably longer than the T1 relaxation time of complex (R)-11.

For data set [4] the following is noted: aqueous solutions of 2.0, 1.0, 0.5 and 0.25 mM, saturation recovery spin echo, 24° C.
A short description of data set [5]: T1 relaxation time measurement by 7T MRI (inversion recovery FISP). The class given is physicochemical. The settings on record: 1.3 mM in ultrapure water, 24° C. The protocol: The T1 relaxation time measurement by MRI was performed using a 7T MRI apparatus (BioSpec 70/20 manufactured Bruker Biospin K.K.). The T1 relaxation time was measured under the measurement conditions of TR/TE 3/1.5 ms, FOV=8*4 cm, matrix=128*128, NA=2 and a temperature of 24° C. using an inversion recovery FISP method. Aqueous solutions of six different concentrations (1.3 mM, 0.65 mM, 0.325 mM, 0.13 mM, 0.026 mM and 0.013 mM) were prepared by dissolving complex (R)-11 in ultrapure water, and each of the aqueous solutions was placed into an Eppendorf tube and used directly as a measurement sample.
The T1 relaxation time was measured in the same manner as in Example 5. A GdCl3 aqueous solution was prepared by dissolving commercially available GdCl3.6H2O in ultrapure water so that the concentration was adjusted to 1.3 mM, and Gd (DTPA) aqueous solutions were prepared by diluting a commercially available Gd (DTPA) aqueous solution (630 mM) with ultrapure water so that the concentration was adjusted to 2.0, 1.3, 1.0, 0.5 and 0.25 mM, respectively. Each of the aqueous solutions was placed into an Eppendorf tube and used directly as a measurement sample.

As for `O=C([O-])CN1CCN(CC(=O)[O-])CCN(CC(=O)O)CCN(CC(=O)[O-])CC1.[Gd+3]` [Gd (DOTA), reference compound], the “coordination number of water molecule” value in data set [1] turned out to be 1.
On to `O=C([O-])CN(CCN(CC(=O)[O-])CC(=O)O)CCN(CC(=O)[O-])CC(=O)O.[Gd+3]` [Gd (DTPA)], for which the “T1 time of water for FBS solution” value in data set [2] is listed as 1429 ms. Moreover, the “coordination number of water molecule” value in data set [1] turned out to be 1. Also, the “T1 relaxation time of water” value in data set [3] stood at 1333 ms. Besides, in data set [4], the “T1 relaxation ability r1” value was 4.661 L/mmol/s. In data set [5], this compound showed a T1 of 205.653 ms.
As for `[Cl][Gd]([Cl])[Cl]` [GdCl3], in data set [2], the “T1 time of water for FBS solution” value was determined as 1708 ms. Also, the “T1 relaxation time of water” value in data set [3] was found to be 712 ms. The compound also came in with a T1 in data set [5] of 58.991 ms.
